# Experiments:
# [1] = target: T1, human TTK (Homo sapiens, UniProt P33981); assay: TTK inhibition assay (indirect ELISA); format: biochemical; settings: read-out: TTK IC50 Range
# T1 construct: amino terminal GST fusion of full length human TTK; purchased Invitrogen
# T1 sequence (P33981 1-857): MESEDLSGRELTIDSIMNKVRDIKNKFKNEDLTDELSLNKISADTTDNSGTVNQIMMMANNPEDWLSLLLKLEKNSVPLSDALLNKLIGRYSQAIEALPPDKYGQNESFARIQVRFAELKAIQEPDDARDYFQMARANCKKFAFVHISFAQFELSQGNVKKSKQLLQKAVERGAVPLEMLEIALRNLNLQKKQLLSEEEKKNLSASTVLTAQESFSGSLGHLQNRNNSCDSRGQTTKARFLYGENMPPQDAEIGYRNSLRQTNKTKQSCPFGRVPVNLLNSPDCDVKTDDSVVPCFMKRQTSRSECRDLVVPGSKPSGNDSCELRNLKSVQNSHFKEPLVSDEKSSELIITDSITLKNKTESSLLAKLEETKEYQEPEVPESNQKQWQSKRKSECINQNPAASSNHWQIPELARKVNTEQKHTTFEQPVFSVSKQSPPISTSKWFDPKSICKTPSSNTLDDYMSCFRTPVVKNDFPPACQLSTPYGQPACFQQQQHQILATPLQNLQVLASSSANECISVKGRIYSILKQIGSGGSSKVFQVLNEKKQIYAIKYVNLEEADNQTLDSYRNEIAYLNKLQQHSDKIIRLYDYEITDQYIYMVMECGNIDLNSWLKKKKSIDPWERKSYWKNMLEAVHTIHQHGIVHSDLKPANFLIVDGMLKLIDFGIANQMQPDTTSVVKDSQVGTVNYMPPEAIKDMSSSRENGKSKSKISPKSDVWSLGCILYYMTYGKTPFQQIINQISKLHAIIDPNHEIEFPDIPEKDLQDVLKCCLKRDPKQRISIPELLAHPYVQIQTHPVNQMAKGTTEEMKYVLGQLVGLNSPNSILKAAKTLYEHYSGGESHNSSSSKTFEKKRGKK
# [2] = tested on: Breast cancer cells; assay: Cancer cell line growth inhibition (SRB assay); format: cell-based; settings: Homo sapiens; MDA-MB-468; read-out: Cancer Cell Line GI50 Range MDA-MB-468
# [3] = tested on: colon cancer cells (HCT116); assay: Cancer cell line growth inhibition (SRB assay); format: cell-based; settings: Homo sapiens, HCT-116; read-out: Cancer Cell Line GI50 Range HCT116
# [4] = tested on: ovarian cancer cells (PA-1); assay: Cancer cell line growth inhibition (SRB assay); format: cell-based; settings: Homo sapiens, PA-1; read-out: Cancer Cell Line GI50 Range PA-1
Compound,IC50 [1] [nM],GI50 [2] [nM],GI50 [3] [nM],GI50 [4] [nM]
"O=C(N[C@H](c1ccccn1)C1CC1)c1ccc2[nH]nc(-c3ccc(OC4CCN(C[C@@H](O)C(F)(F)F)CC4)cc3)c2c1 [Example A225, N-((S)-cyclopropyl(pyridin-2-yl)methyl)-3-(4-((1-((R)-3,3,3-trifluoro-2-hydroxypropyl)piperidin-4-yl)oxy)phenyl)-1H-indazole-5-carboxamide]",< 100,100 to 500,< 100,< 100
"Cc1cc(=O)n(C)c2ccc(-c3n[nH]c4ccc(C(=O)N[C@H](c5ccccn5)C5CCCC5)cc34)cc12 [Example A239, (S)-N-(cyclopentyl(pyridin-2-yl)methyl)-3-(1,4-dimethyl-2-oxo-1,2-dihydroquinolin-6-yl)-1H-indazole-5-carboxamide]",< 100,> 500,> 500,> 500
"CN1CCC(Oc2ccc(-c3n[nH]c4ccc(C(=O)NCC5(OC6CCCC6)CCCCC5)cc34)cc2)CC1 [Example A442, N-((1-(cyclopentyloxy)cyclohexyl)methyl)-3-(4-((1-methylpiperidin-4-yl)oxy)phenyl)-1H-indazole-5-carboxamide]",< 100,> 500,> 500,> 500
"CC(C)C(NC(=O)c1ccc2[nH]nc(-c3ccc(O[C@H]4C[C@H]5CC[C@@H](C4)N5C4COC4)cc3)c2c1)c1ccccc1Cl (stereo partly drawn) [Example A324, N-(1-(2-chlorophenyl)-2-methylpropyl)-3-(4-(((1R,3R,5S)-8-(oxetan-3-yl)-8-azabicyclo[3.2.1]octan-3-yl)oxy)phenyl)-1H-indazole-5-carboxamide]",< 100,100 to 500,100 to 500,100 to 500
"O=C(N[C@H](c1ccsc1)C1CC1)c1ccc2[nH]nc(-c3ccc(N4C5CCC4CC(O)C5)cc3)c2c1 (stereo partly drawn) [Example A365, N-((S)-cyclopropyl(thiophen-3-yl)methyl)-3-(4-((1R,3S,5S)-3-hydroxy-8-azabicyclo[3.2.1]octan-8-yl)phenyl)-1H-indazole-5-carboxamide]",< 100,< 100,< 100,< 100
"CC(C)C(NC(=O)c1ccc2[nH]nc(-c3ccc(O[C@H]4C[C@H]5CC[C@@H](C4)N5C)cc3)c2c1)c1ccccc1F (stereo partly drawn) [Example A281, N-(1-(2-fluorophenyl)-2-methylpropyl)-3-(4-(((1R,3R,5S)-8-methyl-8-azabicyclo[3.2.1]octan-3-yl)oxy)phenyl)-1H-indazole-5-carboxamide]",< 100,100 to 500,< 100,< 100

# The remaining lines, values ahead:
IC50 [1] [nM],GI50 [2] [nM],GI50 [3] [nM],GI50 [4] [nM],Compound
< 100,> 500,> 500,> 500,"Cn1ccc(=O)c2cc(-c3n[nH]c4ccc(C(=O)N[C@H](c5ccccn5)C5CCCC5)cc34)ccc21 [Example A240, (S)-N-(cyclopentyl(pyridin-2-yl)methyl)-3-(1-methyl-4-oxo-1,4-dihydroquinolin-6-yl)-1H-indazole-5-carboxamide]"
< 100,< 100,< 100,< 100,"CCC(CC)C(NC(=O)c1ccc2[nH]nc(-c3ccc(OC4CCN(C5COC5)CC4)cc3)c2c1)c1ccccn1 (stereo not drawn) [Example A292, N-(2-ethyl-1-(pyridin-2-yl)butyl)-3-(4-((1-(oxetan-3-yl)piperidin-4-yl)oxy)phenyl)-1H-indazole-5-carboxamide]"
< 100,> 500,> 500,> 500,"O=C(NCC1(OC2CCCC2)CCCCC1)c1ccc2[nH]nc(-c3ccc(OC4CCN(C5COC5)CC4)cc3)c2c1 [Example A434, N-((1-(cyclopentyloxy)cyclohexyl)methyl)-3-(4-((1-(oxetan-3-yl)piperidin-4-yl)oxy)phenyl)-1H-indazole-5-carboxamide]"

# Source: patent publication US9580390B2, “Indazole compounds as kinase inhibitors and method of treating cancer with same” (University Health Network, priority 2011, dated 2017)
